Experimental findings from patent US20130123460A1, “PEPTIDE FOR IMPROVING BIOSTABILITY OF BIOACTIVE SUBSTANCE, AND BIOACTIVE SUBSTANCE HAVING IMPROVED BIOSTABILITY” (priority 2010, published 2013) are described below.

Entries after “also recorded” stand apart in the source; their conditions may differ. Where two headings read alike, the source gives them in different places. Where no end group is shown, it is not given here. Where only a bound is given, the exact number is not on record here.

Series [1] can be described thus: Plasma stability of GLP-1 peptide complex (remaining rate in rat plasma, HPLC/MS). Particulars: for remaining at 8 h, 0.5 μmol/L / remaining at 48 h, 0.5 μmol/L: SD. In kind it is in vitro ADME, SD rats.
From the text: SD rats were anesthetized with diethyl ether, whole blood was collected and a plasma fraction was separated therefrom.
Series [2] concerns the target T1, endogenous GLP-1 receptor (Mus musculus, UniProt O35659).
T1 construct: expressing an endogenous GLP-1 receptor; endogenous in cells; host or cells: MIN 6 mouse insulinoma cells (obtained from a person)
T1 sequence (O35659 22-463): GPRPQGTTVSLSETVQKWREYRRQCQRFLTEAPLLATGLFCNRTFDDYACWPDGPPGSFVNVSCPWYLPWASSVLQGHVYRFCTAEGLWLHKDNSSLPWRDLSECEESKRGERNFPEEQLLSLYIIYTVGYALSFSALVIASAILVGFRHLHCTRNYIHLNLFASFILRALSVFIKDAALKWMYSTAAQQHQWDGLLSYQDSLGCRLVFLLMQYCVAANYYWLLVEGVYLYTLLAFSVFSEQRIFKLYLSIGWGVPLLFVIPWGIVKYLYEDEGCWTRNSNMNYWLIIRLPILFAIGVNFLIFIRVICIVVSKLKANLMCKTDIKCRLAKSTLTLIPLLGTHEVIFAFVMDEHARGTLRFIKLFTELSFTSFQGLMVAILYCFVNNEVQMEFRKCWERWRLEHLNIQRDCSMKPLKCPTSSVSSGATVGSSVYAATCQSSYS
In words: Insulin secretion capacity of GLP-1 peptide complex in MIN 6 cells.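 On all read-outs here: insulin released into the supernatant of MIN 6 cultures quantified by ELISA, absorbance read at 450 nm with 620 nm reference after substrate addition.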 In kind it is cell-based. Particulars: for Insulin secretion capacity (% of control): 1000 pM, control = native GLP-1 at 1000 pM; for Insulin secretion capacity (activity) compared with native GLP-1, in words: MIN 6 cells, 30, 100, 300 or 1000 pM (FIG. 2, FIG. 3).
Method: MIN 6 was seeded on a multi-plate, which was cultivated at 37° C. for 48 hours. After that, the culture was washed twice with a KRH buffer solution including 2 mM glucose solution (including NaCl 119 mM, KCl 4.74 mM, CaCl2 2.54 mM, MgCl2 1.19 mM, KH2PO4 1.19 mM, 10 mM HEPES buffer solution pH7.3, and 0.1% BSA), and then it was incubated at 37° C. for one hour. […] A supernatant thereof was recovered, and an amount of insulin secreted was measured. The measurement of the insulin was performed in an enzyme-linked immunosorbent assay (ELISA), and an absorbance was measured at 450 nm (a sub-wavelength: 620 nm) after the addition of a substrate.
EC50 values thereof were calculated in the same manner as in Part 2, and the influence on the bioactivity caused by the addition of the partial peptide of the GA module were inspected in detail.
The analysis was performed using the following calculation formula.

[3] abbreviates: rat plasma, 0.5 μmol/L, 37° C., 48 hours, relative to 0 hour = 100%.
[4] abbreviates: rat plasma, 0.5 μmol/L, 37° C., 8 hours, relative to 0 hour = 100%, read-out: Remaining rate in plasma after 8 hours (%).
Where [5] appears, read: rat plasma, 0.5 μmol/L, 37° C., 48 hours, relative to 0 hour = 100%, read-out: Remaining rate in plasma after 48 hours (%).

As for “[Ser8]-GLP-1(7-35)-GAm(1-46)-NH2 [Comparative Example 4, reference compound]”, the “Remaining rate in plasma after 48 hours (%)” value in series [1] (setting [3]) is given as 105%. Also, in series [2] (MIN 6 cells, 15 mM glucose), the “Insulin secretion capacity (% of control)” value is 18%. Besides, the EC50 in series [2] (MIN 6 cells, 15 mM glucose, concentration for 50% of maximum activity of native GLP-1 at 1000 pM, read-out: EC50 value (nM), insulin secretion capacity) is over 1 nM. The “Insulin secretion capacity (activity) compared with native GLP-1, in words” value in series [2] was “remarkably impaired; also recorded: remarkably decreased”.
Regarding “HSEGTFTSDVSSYLEGQAAKEFIAWLVKGAKTVEGVKAL-NH2 [Comparative Example 8, [Ser8]-GLP-1(7-35)-GAm(28-37)-NH2, reference compound]”, in series [1] (rat, plasma), the share remaining at 8 h, 0.5 μmol/L was determined as 27% and the fraction remaining at 48 h, 0.5 μmol/L is 0%.
On to `CC[C@H](C)[C@H](NC(=O)[C@H](CCC(=O)O)NC(=O)[C@H](CC(=O)O)NC(=O)[C@@H](NC(=O)CNC(=O)[C@H](CCCCN)NC(=O)[C@@H](NC(=O)[C@H](CC(C)C)NC(=O)[C@H](Cc1c[nH]c2ccccc12)NC(=O)[C@H](C)NC(=O)[C@@H](NC(=O)[C@H](Cc1ccccc1)NC(=O)[C@H](CCC(=O)O)NC(=O)[C@H](CCCCN)NC(=O)[C@H](C)NC(=O)[C@H](C)NC(=O)[C@H](CCC(N)=O)NC(=O)CNC(=O)[C@H](CCC(=O)O)NC(=O)[C@H](CC(C)C)NC(=O)[C@H](Cc1ccc(O)cc1)NC(=O)[C@H](CO)NC(=O)[C@H](CO)NC(=O)[C@@H](NC(=O)[C@H](CC(=O)O)NC(=O)[C@H](CO)NC(=O)[C@@H](NC(=O)[C@H](Cc1ccccc1)NC(=O)[C@@H](NC(=O)CNC(=O)[C@H](CCC(=O)O)NC(=O)[C@H](C)NC(=O)[C@@H](N)Cc1c[nH]cn1)[C@@H](C)O)[C@@H](C)O)C(C)C)[C@@H](C)CC)C(C)C)[C@@H](C)CC)C(N)=O` [Comparative Example 10, GLP-1(7-35)-GAm(38-41)-NH2, reference compound], for which, in series [1] (rat, plasma), the fraction remaining at 8 h, 0.5 μmol/L came to 35% and the fraction remaining at 48 h, 0.5 μmol/L is 0%.
As for “HSEGTFTSDVSSYLEGQAAKEFIAWLVKGAKTVEGVKALIDEIL-NH2 [Example 13, [Ser8]-GLP-1(7-35)-GAm(28-42)-NH2]”, in series [1] (rat, plasma), the fraction remaining at 8 h, 0.5 μmol/L came out at 88% and the amount remaining at 48 h, 0.5 μmol/L was 87%. In addition, the “Insulin secretion capacity (% of control)” value in series [2] (MIN 6 cells, 15 mM glucose) is 105%.
With “HSEGTFTSDVSSYLEEEAAKEFIAWLVKGGPSSGAPPPS-NH2 [Comparative Example 13, reference compound]”, in series [1] (rat, plasma), the share remaining at 8 h, 0.5 μmol/L came out at 57% and the share remaining at 48 h, 0.5 μmol/L is 12%.
Consider “GLP-1(7-36)-NH2 [Comparative Example 1, reference compound]”, for which the “Insulin secretion capacity (% of control)” value in series [2] (MIN 6 cells, 15 mM glucose) stood at 100%.
In the case of `CC[C@H](C)[C@H](NC(=O)[C@H](Cc1ccccc1)NC(=O)[C@H](CCC(=O)O)NC(=O)[C@H](CCCCN)NC(=O)[C@H](C)NC(=O)[C@H](C)NC(=O)[C@H](CCC(N)=O)NC(=O)CNC(=O)[C@H](CCC(=O)O)NC(=O)[C@H](CC(C)C)NC(=O)[C@H](Cc1ccc(O)cc1)NC(=O)[C@H](CO)NC(=O)[C@H](CO)NC(=O)[C@@H](NC(=O)[C@H](CC(=O)O)NC(=O)[C@H](CO)NC(=O)[C@@H](NC(=O)[C@H](Cc1ccccc1)NC(=O)[C@@H](NC(=O)CNC(=O)[C@H](CCC(=O)O)NC(=O)[C@H](CO)NC(=O)[C@@H](N)Cc1c[nH]cn1)[C@@H](C)O)[C@@H](C)O)C(C)C)C(=O)N[C@@H](C)C(=O)N[C@@H](Cc1c[nH]c2ccccc12)C(=O)N[C@@H](CC(C)C)C(=O)N[C@H](C(=O)N[C@@H](CCCCN)C(=O)NCC(=O)N[C@@H](CC(C)C)C(=O)N[C@H](C(=O)N[C@@H](CC(=O)O)C(=O)N[C@@H](CCC(=O)O)C(=O)N[C@H](C(=O)N[C@@H](CC(C)C)C(=O)N[C@@H](C)C(=O)N[C@@H](C)C(N)=O)[C@@H](C)CC)[C@@H](C)CC)C(C)C` [Example 3, [Ser8]-GLP-1(7-35)-GAm(37-44)-NH2], the share remaining at 8 h, 0.5 μmol/L in series [1] (setting [4]) was found to be 113%. Further, the share remaining at 48 h, 0.5 μmol/L in series [1] (setting [5]) was found to be 95%. Moreover, in series [2] (MIN 6 cells, 15 mM glucose), the “Insulin secretion capacity (% of control)” value worked out at 82%.
As for “HSEGTFTSDVSSYLEGQAAKEFIAWLVKGGVKALIDEILAA-NH2 [Example 9, [Ser8]-GLP-1(7-35)-GAm(33-44)-NH2]”, in series [1] (rat, plasma), the amount remaining at 8 h, 0.5 μmol/L came to 104% and the share remaining at 48 h, 0.5 μmol/L came to 93%. The “Insulin secretion capacity (% of control)” value in series [2] (MIN 6 cells, 15 mM glucose) turned out to be 118%.
For “HSEGTFTSDVSSYLEGQAAKEFIAWLVKGKNLINNAKTVEGVKALIDEILAALP-NH2 [Example 17, [Ser8]-GLP-1(7-35)-GAm(22-46)-NH2]”, in series [1] (rat, plasma), the share remaining at 8 h, 0.5 μmol/L was 80% and the share remaining at 48 h, 0.5 μmol/L was determined as 93%.
Consider “[Ser8]-GLP-1(7-35)-GAm(38-42)-NH2 [Example 1]”, for which, in series [2] (MIN 6 cells, 15 mM glucose), the “Insulin secretion capacity (% of control)” value is 125%.
Take `CC[C@H](C)[C@H](NC(=O)[C@H](Cc1ccccc1)NC(=O)[C@H](CCC(=O)O)NC(=O)[C@H](CCCCN)NC(=O)[C@H](C)NC(=O)[C@H](C)NC(=O)[C@H](CCC(N)=O)NC(=O)CNC(=O)[C@H](CCC(=O)O)NC(=O)[C@H](CC(C)C)NC(=O)[C@H](Cc1ccc(O)cc1)NC(=O)[C@H](CO)NC(=O)[C@H](CO)NC(=O)[C@@H](NC(=O)[C@H](CC(=O)O)NC(=O)[C@H](CO)NC(=O)[C@@H](NC(=O)[C@H](Cc1ccccc1)NC(=O)[C@@H](NC(=O)CNC(=O)[C@H](CCC(=O)O)NC(=O)[C@H](CO)NC(=O)[C@@H](N)Cc1c[nH]cn1)[C@@H](C)O)[C@@H](C)O)C(C)C)C(=O)N[C@@H](C)C(=O)N[C@@H](Cc1c[nH]c2ccccc12)C(=O)N[C@@H](CC(C)C)C(=O)N[C@H](C(=O)N[C@@H](CCCCN)C(=O)NCC(=O)N[C@@H](CC(=O)O)C(=O)N[C@@H](CCC(=O)O)C(=O)N[C@H](C(=O)N[C@@H](CC(C)C)C(=O)N[C@@H](C)C(=O)N[C@@H](C)C(N)=O)[C@@H](C)CC)C(C)C` [Comparative Example 9, [Ser8]-GLP-1(7-35)-GAm(39-44)-NH2, reference compound]: in series [1] (rat, plasma), the share remaining at 8 h, 0.5 μmol/L was 63% and the share remaining at 48 h, 0.5 μmol/L came out at 0%.
“[Ser8]-GLP-1(7-35)-GAm(28-44)-NH2 [Example 14]”: in series [2] (MIN 6 cells, 15 mM glucose), the “Insulin secretion capacity (% of control)” value is recorded as 105%. The “Insulin secretion capacity (activity) compared with native GLP-1, in words” value in series [2] was “almost the same activity as that of the native GLP-1”.
“HSEGTFTSDVSSYLEGQAAKEFIAWLVKGAKTVEGVKALIDE-NH2 [Comparative Example 7, [Ser8]-GLP-1(7-35)-GAm(28-40)-NH2, reference compound]”: in series [1] (rat, plasma), the amount remaining at 8 h, 0.5 μmol/L came to 81% and the share remaining at 48 h, 0.5 μmol/L came out at 4%.
With `CC[C@H](C)[C@H](NC(=O)[C@H](Cc1ccccc1)NC(=O)[C@H](CCC(=O)O)NC(=O)[C@H](CCCCN)NC(=O)[C@H](C)NC(=O)[C@H](C)NC(=O)[C@H](CCC(N)=O)NC(=O)CNC(=O)[C@H](CCC(=O)O)NC(=O)[C@H](CC(C)C)NC(=O)[C@H](Cc1ccc(O)cc1)NC(=O)[C@H](CO)NC(=O)[C@H](CO)NC(=O)[C@@H](NC(=O)[C@H](CC(=O)O)NC(=O)[C@H](CO)NC(=O)[C@@H](NC(=O)[C@H](Cc1ccccc1)NC(=O)[C@@H](NC(=O)CNC(=O)[C@H](CCC(=O)O)NC(=O)CNC(=O)[C@@H](N)Cc1c[nH]cn1)[C@@H](C)O)[C@@H](C)O)C(C)C)C(=O)N[C@@H](C)C(=O)N[C@@H](Cc1c[nH]c2ccccc12)C(=O)N[C@@H](CC(C)C)C(=O)N[C@H](C(=O)N[C@@H](CCCCN)C(=O)NCC(=O)N[C@@H](CCCNC(=N)N)C(=O)N1CCC[C@H]1C(=O)N[C@@H](CO)C(=O)N[C@@H](CO)C(N)=O)C(C)C` [Comparative Example 12, [Gly8]-GLP-1(7-35)-RPSS-NH2, reference compound], in series [1] (setting [4]), the fraction remaining at 8 h, 0.5 μmol/L turned out to be 34%. The amount remaining at 48 h, 0.5 μmol/L in series [1] (setting [5]) amounted to 0%. In addition, the “Remaining rate in plasma after 48 hours (%)” value in series [1] (setting [3]) was determined as 0%.
Turning to “[Ser8]-GLP-1(7-35)-GAm(32-44)-NH2 [Example 10]”, the “Insulin secretion capacity (% of control)” value in series [2] (MIN 6 cells, 15 mM glucose) turned out to be 109%.
On the same count and under the same terms, in the case of “[Ser8]-GLP-1(7-35)-GAm(38-44)-NH2 [Example 2]” it was 120%.
In the case of `CC[C@H](C)[C@H](NC(=O)CNC(=O)[C@H](CCCCN)NC(=O)[C@@H](NC(=O)[C@H](CC(C)C)NC(=O)[C@H](Cc1c[nH]c2ccccc12)NC(=O)[C@H](C)NC(=O)[C@@H](NC(=O)[C@H](Cc1ccccc1)NC(=O)[C@H](CCC(=O)O)NC(=O)[C@H](CCCCN)NC(=O)[C@H](C)NC(=O)[C@H](C)NC(=O)[C@H](CCC(N)=O)NC(=O)CNC(=O)[C@H](CCC(=O)O)NC(=O)[C@H](CC(C)C)NC(=O)[C@H](Cc1ccc(O)cc1)NC(=O)[C@H](CO)NC(=O)[C@H](CO)NC(=O)[C@@H](NC(=O)[C@H](CC(=O)O)NC(=O)[C@H](CO)NC(=O)[C@@H](NC(=O)[C@H](Cc1ccccc1)NC(=O)[C@@H](NC(=O)CNC(=O)[C@H](CCC(=O)O)NC(=O)[C@H](C)NC(=O)[C@@H](N)Cc1c[nH]cn1)[C@@H](C)O)[C@@H](C)O)C(C)C)[C@@H](C)CC)C(C)C)C(=O)N[C@@H](CC(=O)O)C(=O)N[C@@H](CCC(=O)O)C(N)=O` [Comparative Example 11, GLP-1(7-35)-GAm(38-40)-NH2, reference compound], in series [1] (rat, plasma), the amount remaining at 8 h, 0.5 μmol/L was 0% and the share remaining at 48 h, 0.5 μmol/L was 0%.

By EC50 is commonly meant the concentration giving half of the maximal effect.
